Among the data in US20070092551A1, “Therapeutic agent” (TAKARA BIO INC., priority 2003, published 2007) are activation values, retold here.

Where two headings read alike, the source gives them in different places.

The subject of the test is mature adipocytes (3T3-L1 cells). Description: Enhancing action on glucose uptake (2-deoxyglucose) into mature adipocytes. It counts as cell-based. The settings on record: Mus musculus. Here is the method: The induction of differentation into nature adipocytes was carried out by partially modifying the above-mentioned method of Rubin C. S. et al. 3T3-L1 cells (ATCC CCL-92.1) were suspended in a 10% fetal bovine serum (manufactured by Bio Whittaker)-containing Dulbecco's modified Eagle's medium (manufactured by Sigma, D6046) containing 200 μM ascorbic acid so as to have a density of 4×10^3 cells/mL, and the suspension was put in each well of a collagen type I-coated 12-well plate (Iwaki Glass Co., Ltd., code 4815-010) in an amount of 2 mL per well. The cells were cultured at 37° C. for 7 days in the presence of 5% carbon dioxide gas. On the seventh day, the medium was exchanged with 2 mL of a 10% fetal bovine serum (manufactured by Bio Whittaker)-containing Dulbecco's modified Eagle's medium containing 200 μM ascorbic acid, 0.25 μM dexamethasone, 10 μg/mL insulin (manufactured by TAKARA BIO INC.) and 0.5 mM 3-isobutyl-1-methylxanthine (manufactured by nacalai tesque, 19624-86). After 45 hours, the medium was exchanged with 2 mL of a 10% fetal bovine serum-containing Dulbecco's modified Eagle's medium containing 200 μM ascorbic acid and 5 μg/mL insulin. The medium was exchanged on after 2 days and 5 days, and the cells were cultured for 7 days, to give mature adipocytes.
As the evaluation of the enhancing action on glucose uptake, and also as the evaluation of the insulin-mimetic action, the amount of 2-deoxyglucose uptake into mature adipocytes during the stimulation of the test compound in the adipocytes was determined. As a test compound, a compound prepared in the Examples mentioned above or a commercially available compound was used.
After the termination of the culture, the medium was removed, and the cells were washed twice with a 0.1% (w/v) bovine serum albumin (manufactured by Sigma, A8022)-containing Dulbecco's modified Eagle's medium. Thereafter, 1 mL of the same medium containing a test compound in a concentration shown in each of Tables 20 to 23 was put to each well. The cells were cultured overnight at 37° C. in the presence of 5% carbon dioxide gas. Here, a group without containing the test compound was set as a negative control. After the overnight culture, the cells were washed twice with a HEPES buffer (140 mM NaCl, 5 mM KCl, 2.5 mM MgSO4, 1 mM CaCl2, 20 mM HEPES-Na (pH 7.4)). The amount 0.9 mL of the buffer containing a test compound in the same concentration was added to each well. The cells were cultured at 37° C. for 75 minutes. During the culture, as a positive control, there was set a group with addition of insulin to the well without addition of a test compound at a point 45 minutes passed so as to have a final concentration of 1 μg/mL. Thereafter, 100 μL of a HEPES buffer containing 0.5 μCi/mL 2-deoxy-[1,2-^3H(N)]-glucose (manufactured by PerkinElmer Life Sciences Inc., NET549A) and 1 mM 2-deoxyglucose (manufactured by nacalai tesque, 10722-11) was added thereto. The cells were cultured at 37° C. for additional 10 minutes. After the termination of the culture, the supernatant was removed, and the cells were washed three times with a phosphate buffer cooled to 4° C. Thereafter, 0.5 mL of a 1% Nonidet P-40-containing phosphate buffer was added to lyse the cells, whereby 2-deoxy-[1,2-^3H(N)]-glucose subjected to uptake into the cells was eluted. The radioactivity was determined with a liquid scintillation counter LS6500 (manufactured by Beckmann) using 25 μL of the supernatant with Ultima Gold (manufactured by PerkinElmer Life Sciences Inc., 6013329) as a scintillation cocktail. The enhancing action on glucose uptake was calculated by the following calculation formula, and shown by four ranks of +++, ++, + and +/−. • S: Amount of 2-deoxyglucose uptake in the presence of a test compound; • N: Amount of 2-deoxyglucose uptake in the negative control; and • P: Amount of 2-deoxyglucose uptake in the positive control; X=(S−N)/(P−N) (Judgment of Enhancing Action for 2-Deoxyglucose Uptake)

Where [1] appears, read: 3T3-L1, 10 μM, X=(S−N)/(P−N) of 2-deoxyglucose uptake, P=insulin 1 μg/mL, read-out: Enhancing Action on Glucose Uptake.
Where [2] appears, read: 3T3-L1, 30 μM, X=(S−N)/(P−N) of 2-deoxyglucose uptake, P=insulin 1 μg/mL, read-out: Enhancing Action on Glucose Uptake.
[3] abbreviates: 3T3-L1, 3 μM, X=(S−N)/(P−N) of 2-deoxyglucose uptake, P=insulin 1 μg/mL, read-out: Enhancing Action on Glucose Uptake.
Setting [4] is: 3T3-L1, read-out: Enhancing Action on Glucose Uptake.

Consider `COc1ccc(C=O)c(O)c1` [2-Hydroxy-4-methoxybenzaldehyde], for which, under setting [1], the activation at 10 µM was in the range of 15 to 30%. For the same molecule, the activation at 30 µM under setting [2] was 30 to 60%.
In the same order, the values of `O=C(/C=C/c1ccccc1)c1ccccc1` [Chalcone] are 30 to 60% and 30 to 60%.
In the same order, the values of `O=C(/C=C/c1ccc(O)c(O)c1)c1ccccc1O` [Compound (C005), 3,4,2′-trihydroxychalcone] are 30 to 60% and 30 to 60%.
Take `O=C(/C=C/c1ccc(O)c(O)c1)c1cc(O)ccc1O` [Compound (C006), 3,4,2′,5′-tetrahydroxychalcone]: under setting [1], the activation at 10 µM lay in the range of 30 to 60%.
As for `O=C(/C=C/c1ccc(O)c(O)c1)c1ccc(Cl)cc1Cl` [Compound (C011), 3,4-dihydroxy-2′,4′-dichlorochalcone], the activation at 3 µM under setting [3] is 15 to 30%. Under setting [1], the activation at 10 µM lay within 60 to 100%. Besides, the activation at 30 µM under setting [2] is above 100%.
With `CC(=O)c1cc(CC=C(C)C)c(O)cc1O` [Compound (C025), 2′,4′-dihydroxy-5′-prenylacetophenone], the activation at 10 µM under setting [1] is 15 to 30%. In addition, under setting [2], the activation at 30 µM lay within 30 to 60%.
For the molecule `COc1ccc(C(=O)/C=C/c2ccc(OC3CCCCO3)cc2)c(O)c1CC=C(C)C` (stereo not shown) [Compound (C030), 4-tetrahydropyranyloxy-2′-hydroxy-3′-prenyl-4′-methoxychalcone], under setting [1], the activation at 10 µM fell in the range of 30 to 60%. The activation at 30 µM under setting [2] is above 100%.
Take `COc1ccc(C(=O)/C=C/c2ccc(O)c(O)c2)c(O)c1CC=C(C)C` [Compound (C031), 3,4,2′-trihydroxy-3′-prenyl-4′-methoxychalcone]: under setting [1], the activation at 10 µM was in the range of 15 to 30%. Moreover, the activation at 30 µM under setting [2] is above 100%.
With `COc1ccc(C(=O)/C=C/c2ccc(O)cc2)c(O)c1CCC(C)C` [Compound (C043), 4,2′-dihydroxy-3′-(3-methylbutyl)-4′-methoxychalcone], the activation at 3 µM under setting [3] lay within 15 to 30%. For the same molecule, the activation at 10 µM under setting [1] was above 100%.
With `CC(=O)c1ccc(OC2CCCCO2)c(C/C=C(\C)CCC=C(C)C)c1O` (stereo not shown) [Compound (C045), 2′-hydroxy-3′-geranyl-4′-tetrahydropyranyloxyacetophenone], under setting [1], the activation at 10 µM fell in the range of 15 to 30%. Besides, under setting [2], the activation at 30 µM was 30 to 60%.
For `CCOc1ccc(C(=O)/C=C/c2ccc(O)cc2)c(O)c1C/C=C(\C)CCC=C(C)C` [Compound (C050), 4,2′-dihydroxy-3′-geranyl-4′-ethoxychalcone], the activation at 3 µM under setting [3] fell in the range of 15 to 30%. In addition, the activation at 10 µM under setting [1] is above 100%.
On to `COc1ccc(C(=O)/C=C/c2ccc(O)cc2)c(O)c1C/C=C(\C)CC/C=C(\C)CCC=C(C)C` [Compound (C053), 4,2′-dihydroxy-3′-farnesyl-4′-methoxychalcone], for which, under setting [3], the activation at 3 µM was in the range of 30 to 60%. In addition, under setting [1], the activation at 10 µM is above 100%. Also, the activation at 30 µM under setting [2] was above 100%.
Turning to `CC(C)=CCC/C(C)=C/CC/C(C)=C/Cc1c(O)ccc(C(=O)/C=C/c2ccc(O)cc2)c1O` [Compound (C058), 4,2′,4′-trihydroxy-3′-farnesylchalcone], the activation at 30 µM under setting [2] is above 100%.
As for `COc1ccc(C(=O)/C=C/C=C/c2ccccc2)c(O)c1CC=C(C)C` [Compound (C-CIN), 1-(2-hydroxy-4-methoxy-3-prenylphenyl)-5-phenyl-2,4-pentadien-1-one], under setting [3], the activation at 3 µM lay in the range of 15 to 30%. For the same molecule, under setting [1], the activation at 10 µM was 15 to 30%. Besides, under setting [2], the activation at 30 µM is above 100%.
On to `COc1ccc2c(c1CC=C(C)C)OC(c1ccco1)C(=Cc1ccco1)C2=O` (stereo not shown) [Compound (FUR-2), 2-(2-furyl)-3-(2-furylmethylene)-2,3-dihydro-7-methoxy-8-prenyl-4H-1-benzopyran-4-one], for which the activation at 3 µM under setting [3] lay within 15 to 30%. Also, under setting [1], the activation at 10 µM lay in the range of 30 to 60%. Moreover, the activation at 30 µM under setting [2] lay in the range of 30 to 60%.
Take `C/C=C(/C)C(=O)OC1c2c(ccc3ccc(=O)oc23)OC(C)(C)C1OC(C)=O` (stereo not shown) [Coumarin Compound A, 3′-acetoxy-4′-angeloyloxy-3′,4′-dihydroseselin]: the activation at 10 µM under setting [1] was above 100%. Moreover, the activation at 30 µM under setting [2] was above 100%.
As to `C/C=C(/C)C(=O)OC1Cc2c(ccc3ccc(=O)oc23)OC1(C)C` (stereo not shown) [Coumarin Compound B, 3′-angeloyloxy-3′,4′-dihydroseselin], under setting [1], the activation at 10 µM was above 100%. For the same molecule, the activation at 30 µM under setting [2] is above 100%.
As to `C/C=C(/C)C(=O)OC1C(O)c2c(ccc3ccc(=O)oc23)OC1(C)C` (stereo not shown) [Coumarin Compound C, 3′-angeloyloxy-4′-hydroxy-3′,4′-dihydroseselin], the activation at 30 µM under setting [2] lay within 30 to 60%.
For `CC(C)=CCCC1(C)C=Cc2c(ccc(C(=O)/C=C/c3ccc(O)cc3)c2O)O1` (stereo not shown) [Lespeol], under setting [1], the activation at 10 µM was in the range of 60 to 100%. Further, under setting [2], the activation at 30 µM lay within 60 to 100%.
For `CCCCC1OC(=O)C2=CCCCC21` (stereo not shown) [Sedanolide], the activation at 10 µM under setting [1] is 15 to 30%. For the same molecule, the activation at 30 µM under setting [2] was 60 to 100%.
In the case of `COc1ccc(C(=O)/C=C/c2ccc(O)cc2)c(O)c1CC1C2(C)CCC(O2)C1(C)C` (stereo not shown) [TB7, 1-[3-(2,5-epoxy-2,6,6-trimethyl-cyclohexylmethyl)-2-hydroxy-4-methoxyphenyl]-3-(4-hydroxyphenyl)-2-propen-1-one], under setting [1], the activation at 10 µM was above 100%. The activation at 30 µM under setting [2] is above 100%.
In the case of `CCC/C=C1\OC(=O)c2ccccc21` [n-Butylidenephthalide], under setting [4], the activation at 3 µM fell in the range of 30 to 60%, the activation at 10 µM was in the range of 60 to 100% and the activation at 30 µM is above 100%.
